Data published in PubChem BioAssay AID489032 (Sanford-Burnham Center for Chemical Genomics, 2010).
pEC50: −log10 of the molar value. Calls of active or inactive are those of the source. How the calls were made is not given here.

Tested on: UPR adaptive arm reporter cells, luciferase luminescence
Assay: adaptive unfolded protein response reporter activation – cell-based, luciferase luminescence, dose response (AID 489032)

CCCCCCCCCCOC(=O)Cn1c(COc2ccccc2OC)[n+](C)c2ccccc21
pEC50: 4.74

O=C(Nc1ccc([N+](=O)[O-])cc1)c1nc[nH]c1C(=O)NC1CCCCC1
EC50: > 80 µM (inactive)

CC(C)(C)C(=O)NC(=S)NNC(=O)c1sc2ccccc2c1Cl
EC50: > 80 µM (inactive)

C[C@@H]1C[C@H]2[C@@H]3CCC4=CC(=O)C=C[C@]4(C)[C@@]3(Cl)[C@@H](O)C[C@]2(C)[C@@]1(OC(=O)c1ccco1)C(=O)CCl
EC50: > 80 µM (inactive)

Nc1nc(-c2cc(O)ccc2[N+](=O)[O-])cc(-c2ccccc2)c1[N+](=O)[O-]
pEC50: 5.08

Cc1ccc2c(c1)C(c1ccc(N3CCOCC3)cc1)=NNC(c1cccs1)=N2
EC50: 46.9 µM (inactive)

Cc1cc(NC(=O)c2cc(-c3ccccn3)nc3ccc(Br)cc23)no1
EC50: > 80 µM (inactive)

Brc1cc(Br)c2ncnc(N3CCCCC3)c2c1
EC50: 44.5 µM (inactive)

O=Cc1cc2ccccc2nc1SCc1ccc(Cl)c(Cl)c1
EC50: 52.3 µM (inactive)

Cn1ncc(N=Cc2c(O)ccc3ccccc23)c1C(=O)Nc1cccc(Cl)c1
EC50: > 80 µM (inactive)

O=C(NCC1CC1)c1cccc2c1C(=O)c1ccc(-c3ccc(OC(F)(F)F)cc3)cc1S2(=O)=O
EC50: > 80 µM (inactive)

C=C(C)[C@@]12OC3(c4ccccc4)O[C@@H]1C1[C@@H]4O[C@]4(CO)[C@@H](O)[C@]4(O)C(=O)C(C)=C[C@H]4[C@@]1(O3)[C@H](C)[C@H]2OC(=O)/C=C/C=C/c1ccccc1 (stereo partly drawn)
EC50: 39.1 µM (inactive)

Cn1c(Cl)cnc1C1CC(=O)c2cc(Cl)ccc2O1 (stereo not drawn)
pEC50: 4.72

COc1cc(/C=N/NC(N)=O)c(Br)cc1OCC(=O)Nc1ccccc1C
EC50: > 80 µM (inactive)

Cc1ccc(-c2nnn(CC(=O)N(Cc3cccs3)C(C(=O)NC3CCCCC3)c3ccco3)n2)o1 (stereo not drawn)
EC50: > 80 µM (inactive)

CCOC(=O)c1c(NC(C)=O)sc2c(OCC(O)CNC(C)(C)C)c(Br)ccc12 (stereo not drawn)
EC50: > 80 µM (inactive)

Cn1c(/C=C/c2ccc(Cl)cc2Cl)c([N+](=O)[O-])c(=O)n(C)c1=O
EC50: > 80 µM (inactive)

COc1cc2[nH]c3c(N4CCN(c5ccc(Cl)cc5)CC4)ncnc3c2cc1OC
EC50: > 80 µM (inactive)

O=C(Nc1nc2ccc(Cl)cc2s1)c1ccc(N2CCCCC2)c([N+](=O)[O-])c1
EC50: > 80 µM (inactive)

Cc1ccc2c(c1)c(N=NC(N)=S)c(O)n2Cc1ccccc1
EC50: 61.8 µM (inactive)

N#Cc1c(-c2ccc3c(c2)OCO3)ccn2nc(-c3cccc(C(F)(F)F)c3)nc12
EC50: > 80 µM (inactive)

CCOC(=O)c1nnn2c1nc(Nc1cccc(C(F)(F)F)c1)c1ccccc12
pEC50: 4.76

O=C(NC(=S)Nc1cc(-c2nc3ccccc3[nH]2)ccc1Cl)c1ccc2c(c1)OCO2
pEC50: 5.00

Fc1ccc(Nc2nc(NCc3ccco3)c3ccccc3n2)cc1
EC50: > 80 µM (inactive)

Oc1ccc(/C=N/Nc2nc(N3CCCC3)nc(N3CCCC3)n2)cc1O
EC50: > 80 µM (inactive)

CCOC(=O)c1sc(-c2ccccc2)cc1NC(=O)Nc1ccc([N+](=O)[O-])cc1
EC50: 24.2 µM (inactive)

Oc1cc(-c2cccnc2)cc2cccnc12
EC50: > 80 µM (inactive)

Cc1ccc(NC(=O)CSc2nc3ccccc3c3nc4ccccc4n23)cc1
pEC50: 5.11

O=C(NC(=S)Nc1ccc(NC(=O)c2cccs2)cc1)c1cc2ccccc2o1
EC50: > 80 µM (inactive)

COc1ccc(-c2ccc(C#N)c(SCC(=O)Nc3sc4c(c3C#N)CCC4)n2)cc1OC
EC50: > 80 µM (inactive)

COc1ccc(-c2cc(=O)oc3c(C)c(OC(=O)c4cccs4)ccc23)cc1
EC50: > 80 µM (inactive)

N#C/C(=C\c1ccc(N2CCCC2)c([N+](=O)[O-])c1)c1nc2ccccc2[nH]1
EC50: > 80 µM (inactive)

Cc1cc(NC(=O)c2cc(-c3ccncc3)nc3c(C)cccc23)no1
pEC50: 4.75

O=[N+]([O-])c1cc(-c2ccc(/C=N/c3nc4ccccn4c3-c3ccco3)o2)ccc1Cl
EC50: > 80 µM (inactive)

COc1ccc(OC)c(-c2nnc3n2N=C(c2ccc(OC)c(OC)c2)CS3)c1
EC50: > 80 µM (inactive)

COc1ccc(/C=C/c2nc3cc(-c4ccccc4)ccc3o2)cc1O
EC50: > 80 µM (inactive)

COc1ccc(-c2cc(C(F)F)n3ncc(C(=O)Nc4ccc(C(=O)N5CCOCC5)cc4)c3n2)cc1
EC50: > 80 µM (inactive)

Nc1nc(Nc2cccc(F)c2)nc2ccccc12
EC50: 73.9 µM (inactive)

COc1cc(CNCCO)cc(Cl)c1OCc1ccc(Cl)cc1Cl
EC50: > 80 µM (inactive)

CN(/N=C\c1ccc(O)c(O)c1)c1nc(-c2ccccc2)cc(-c2ccccc2)n1
pEC50: 5.06

COc1cc(C(=O)Nc2nc(-c3ccc(Cl)cc3)c(C)s2)ccc1OCC(=O)Nc1ccc(F)cc1
EC50: > 80 µM (inactive)

CCCc1nc2c(c(=O)c3ccccc3n2C)c(=O)n1C1CCCCCC1
EC50: > 80 µM (inactive)

Cn1nc(C(F)(F)F)c(/C=N/OC(=O)c2ccccc2)c1SCc1ccccc1Cl
pEC50: 4.99

CCOc1cc(/C=N\Nc2ccc([N+](=O)[O-])cc2)ccc1OCC(=O)Nc1ccc(C)c(C)c1
EC50: 43.2 µM (inactive)

Cc1cc(N2CCN(c3nc(-c4ccc([N+](=O)[O-])cc4)cs3)CC2)c2ccccc2n1
EC50: > 80 µM (inactive)

CCOc1ccc(NC(=O)C(Cc2ccccc2)N2C(=O)c3cccc4cccc(c34)C2=O)cc1 (stereo not drawn)
EC50: > 80 µM (inactive)

N#Cc1ccccc1/C=N/Nc1nc(-c2ccccc2)c2cc(Cl)ccc2n1
EC50: > 80 µM (inactive)

Cn1c2ccccc2c2cc(/C=N/NC(=O)c3cc(O)ccc3O)ccc21
EC50: 38.1 µM (inactive)

OCCCn1c(C2CCCN2c2nc(-c3ccc(F)cc3)cs2)nc2cc(Cl)c(N3CCCCC3)cc21 (stereo not drawn)
EC50: > 80 µM (inactive)

COc1ccc(-c2c/c(=N\c3nc(-c4ccccc4)c(C)s3)c3ccccc3o2)cc1O
EC50: > 80 µM (inactive)

Cc1ccc2nc(SCC(=O)Nc3cc(C(F)(F)F)ccc3N3CCOCC3)[nH]c2c1
EC50: > 80 µM (inactive)

O=c1cc2oc3cc(O)c(O)cc3c(-c3ccccc3[N+](=O)[O-])c-2cc1O
EC50: > 80 µM (inactive)

COC(=O)c1sccc1NC(=O)c1cc(-c2cccc(C)c2)nc2ccccc12
EC50: > 80 µM (inactive)

Cc1ccc(N2CCN(c3ccc(NCc4nc5ccccc5n4C)cc3)CC2)cc1
EC50: > 80 µM (inactive)

COc1ccc(-c2nn(C)c(=O)c3ccccc23)cc1NC(=O)Cn1nc(C)c2ccccc2c1=O
EC50: 28 µM (inactive)

CCOC(=O)c1ccc(-c2ccc(/C=N/NC(=O)CN(c3cccc(C)c3)S(C)(=O)=O)o2)cc1
pEC50: 4.74

O=C(N/N=C/c1ccc(O)c(O)c1)c1ccc(CSc2cccc3cccnc23)cc1
EC50: > 80 µM (inactive)

CC(=O)Nc1ccccc1Sc1ccc2c3c(cccc13)C(=O)N(c1ccc(C)cc1)C2=O
EC50: > 80 µM (inactive)

CCOc1cc(/C=C2/NC(=S)NC2=O)ccc1OCc1ccc([N+](=O)[O-])cc1
EC50: > 80 µM (inactive)

Cc1ccc(-c2nnn(CC(=O)Nc3ccc(S(=O)(=O)N4CCC(C)CC4)cc3)n2)cc1
EC50: > 80 µM (inactive)

COc1ccc(-c2c(-c3cc(OC)cc(OC)c3)n(C)c3ccc(-c4cnc(N)nc4)cc23)cc1
EC50: 36.1 µM (inactive)

Cn1c(=O)c2c(SCC(=O)Nc3ccccc3F)nc(-c3ccccc3F)nc2n(C)c1=O
EC50: 36.1 µM (inactive)

COc1ccc(N2CCN(Cc3nc(N)nc(Nc4ccc(C)c(Cl)c4)n3)CC2)cc1
pEC50: 4.74

C/C(=N/Nc1cc(-c2ccccc2)nc(-c2ccccc2)n1)c1ccc(O)cc1
pEC50: 4.70

Cc1ccc(NC(=O)c2ccc(N/N=C/c3cccc(O)c3)c([N+](=O)[O-])c2)cc1
EC50: > 80 µM (inactive)

CC1(C)CC[C@@]23CC[C@]4(C)[C@@](OC2=O)(C3C1)[C@H]1O[C@H]1C1[C@@]2(C)CC[C@H](O)C(C)(C)C2CC[C@]14C (stereo partly drawn)
EC50: > 80 µM (inactive)

O=C(Cc1ccccc1)c1c[nH]c(C(=O)C(Cl)(Cl)Cl)c1
EC50: > 80 µM (inactive)

Cc1ccc(-c2ccnc(-c3ccc(O)cc3)n2)cc1
EC50: 63.8 µM (inactive)

COc1ccc2nc(NC(=O)c3cccc(-c4cc5ccccc5oc4=O)c3)sc2c1
EC50: > 80 µM (inactive)

Cc1ccccc1NC(=O)c1ccc(N/N=C/c2ccccc2O)c([N+](=O)[O-])c1
EC50: > 80 µM (inactive)

CC(C)=CCc1c2c(c3occ(-c4ccc(O)cc4)c(=O)c3c1O)C=CC(C)(C)O2
EC50: > 80 µM (inactive)

CN(C)S(=O)(=O)c1ccc(N2CCCC2)c(C(=O)Nc2nccs2)c1
EC50: 50 µM (inactive)

O=C(Nc1ccc(SC(F)F)cc1)c1cc(-c2ccncc2)nc2ccccc12
EC50: 34.7 µM (inactive)

CCOc1ccccc1NC(=O)Cn1c(=O)n(-c2ccccc2)c(=O)c2oc3ccccc3c21
EC50: > 80 µM (inactive)

Cc1ccc(/C=C/C(=O)c2cc(Br)ccc2OC(=O)c2ccco2)cc1
EC50: 37.9 µM (inactive)

CN(c1ccccc1)S(=O)(=O)c1cccc(C(=O)NCCc2ccc(O)c(O)c2)c1
EC50: 32.2 µM (inactive)

COc1ccc(NC(=O)c2sc3nc(N4CCOCC4)c4c(c3c2N)CC(C)(C)OC4)c(OC)c1
EC50: > 80 µM (inactive)

CCOc1ccccc1-n1c(SCC(=O)Nc2ccc(CC)cc2)nc2n[nH]c(C)c2c1=N
pEC50: 5.23

CC(C)(C)C(=O)NC(=S)NNC(=O)C(c1ccccc1)c1ccccc1
EC50: 27 µM (inactive)

COc1ccc([N+](=O)[O-])cc1COc1ccc2c(-c3ccccc3)cc(=O)oc2c1
EC50: > 80 µM (inactive)

COc1ccc(C2CC(c3c(-c4ccccc4)c4cc(Cl)ccc4[nH]c3=O)=NN2S(C)(=O)=O)cc1 (stereo not drawn)
EC50: > 80 µM (inactive)

CCN(CC)c1ccc(N=Cc2c(O)n(Cc3ccccc3)c(=O)[nH]c2=O)cc1
EC50: 62.5 µM (inactive)

CCOc1cc(/C=N/NC(=O)Cn2nc([N+](=O)[O-])cc2C)cc(Br)c1OCc1ccccc1C
EC50: > 80 µM (inactive)

CCN(CC)S(=O)(=O)c1ccc(N/N=C(\C)c2ccc3c(c2)OCO3)c([N+](=O)[O-])c1
EC50: 22.1 µM (inactive)

COc1cc(OC)c2c(-c3cccc(-c4ccc(CO)cc4)c3)cc(=O)oc2c1
EC50: > 80 µM (inactive)

CCC(C)Nc1nc(N)c([N+](=O)[O-])c(NC2CCCCC2)n1 (stereo not drawn)
EC50: 55.9 µM (inactive)

Cc1ccc(C(C(=O)NCc2ccco2)N(C(=O)CNC(=O)c2cccs2)c2c(C)cc(C)cc2C)cc1 (stereo not drawn)
EC50: > 80 µM (inactive)

O=C(Nc1ccc(C(F)(F)F)cc1)c1cc(-c2cccnc2)nc2ccc(Br)cc12
pEC50: 4.81
